Test results: patent publication US5482858A, “Polypeptide linkers for production of biosynthetic proteins” (priority 1993, dated 1996)

Key:
[1] = test system: 26-10 BABS (sFv), single chain biosynthetic antibody binding site VH-(Gly4-Ser)3-VL mimicking murine anti-digoxin monoclonal 26-10; experiment: Specificity determination by radioimmunoassay (inhibition of 125I-digoxin binding), 26-10 BABS
Protocol: After the plates were washed and blocked with 1% horse serum in PBSA, solutions (50 μl) containing 26-10 Fab or the BABS in either PBSA or 0.01M sodium acetate at pH 5.5 were added to the wells and incubated 2-3 hrs at room temperature.

[2] = target: 26-10 BABS, single chain biosynthetic antibody binding site VH-(Gly4-Ser)3-VL mimicking murine anti-digoxin monoclonal 26-10; experiment: Affinity determination by equilibrium binding of 3H-digoxin (immunoprecipitation), 26-10 BABS
Protocol: (§1) Association constants were measured by equilibrium binding studies. […] After 2-3 hrs of incubation at room temperature, the protein was precipitated by the addition of 100 μl goat antiserum to murine Fab fragment (ICN Immuno-Biologicals), 50 μl of the IgG fraction of rabbit anti-goat IgG (ICN ImmunoBiologicals), and 50 μl of a 10% suspension of protein A-Sepharose (Sigma). Following 2 hrs at 4° C., bound and free antigen were separated by vacuum filtration on glass fiber filters (Vacuum Filtration Manifold, Millipore, Bedford, Mass.). Filter disks were then counted in 5 ml of […] scintillation fluid with a Model 1500 Tri-Carb Liquid Scintillation Analyzer (Packard, Sterling, Va.). The Scatchard analyses of the untransformed radioligand binding data using LIGAND, a non-linear curve fitting program based on mass action. Ko s were also calculated by Sips plots and binding isotherms shown in FIG. 13A for the BABS and 13B for the Fab. […] These binding data are also plotted in linear form as Sips plots (inset), having the same abscissa as the binding isotherm but with the ordinate representing log r/(n-r), defined below.

[3] = target: IgG2a,k monoclonal antibody 26-10 (parent anti-digoxin antibody); settings: cited from earlier work
[4] = target: anti-digoxin 26-10 Fab (murine monoclonal 26-10); experiment: Affinity determination by equilibrium binding of 3H-digoxin (immunoprecipitation), 26-10 Fab
Protocol: as §1

[5] = normalizing glycoside Digoxigenin

In the case of `CC(=O)OC1CCC2(C=O)C3CCC4(C)C(C5=CC(=O)OC5)CCC4(O)C3CCC2(O)C1` (stereo not shown) [Acetyl Strophanthidin], the “normalized concentration of inhibitor giving 50% inhibition of 125I-digoxin binding” value [1, 5] is reported as 0.8 and the “normalized concentration of inhibitor giving 50% inhibition of 125I-digoxin binding” value ([1]; normalizing glycoside Digoxin) is reported as 5.9.

For `C[C@]12CC[C@H](O)C[C@H]1CC[C@@H]1[C@@H]2CC[C@]2(C)[C@@H](C3=CC(=O)OC3)CC[C@]12O` [Digitoxigenin], the “normalized concentration of inhibitor giving 50% inhibition of 125I-digoxin binding” value [1, 5] was 0.4 and the “normalized concentration of inhibitor giving 50% inhibition of 125I-digoxin binding” value ([1]; normalizing glycoside Digoxin) was 2.6.

With `C[C@H]1O[C@@H](O[C@H]2[C@@H](O)C[C@H](O[C@H]3[C@@H](O)C[C@H](O[C@H]4CC[C@@]5(C)[C@H](CC[C@@H]6[C@@H]5CC[C@]5(C)[C@@H](C7=CC(=O)OC7)CC[C@]65O)C4)O[C@@H]3C)O[C@@H]2C)C[C@H](O)[C@@H]1O` [Digitoxin] the “normalized concentration of inhibitor giving 50% inhibition of 125I-digoxin binding” value [1, 5] was 0.3 and the “normalized concentration of inhibitor giving 50% inhibition of 125I-digoxin binding” value ([1]; normalizing glycoside Digoxin) was 2.0.

With `C[C@]12CC[C@H](O)C[C@H]1CC[C@@H]1[C@@H]2C[C@@H](O)[C@]2(C)[C@@H](C3=CC(=O)OC3)CC[C@]12O` [Digoxigenin] the “normalized concentration of inhibitor giving 50% inhibition of 125I-digoxin binding” value [1, 5] was 1.0 and the “normalized concentration of inhibitor giving 50% inhibition of 125I-digoxin binding” value ([1]; normalizing glycoside Digoxin) was 7.3.

For `C[C@H]1O[C@@H](O[C@H]2[C@@H](O)C[C@H](O[C@H]3[C@@H](O)C[C@H](O[C@H]4CC[C@@]5(C)[C@H](CC[C@@H]6[C@@H]5C[C@@H](O)[C@]5(C)[C@@H](C7=CC(=O)OC7)CC[C@]65O)C4)O[C@@H]3C)O[C@@H]2C)C[C@H](O)[C@@H]1O` [Digoxin], the “Association Constant, Ko (BABS)” value ([2]; Binding isotherm) was 5.2e+07 M⁻¹, the “Association Constant, Ko (BABS)” value ([2]; Scatchard plot) was “(3.2 ± 0.9) × 10^7 M^-1” and the “Association Constant, Ko (BABS)” value ([2]; Sips plot) was 2.6e+07 M⁻¹. The Kd [3] was 0.185 nM, the “Association Constant, Ko (Fab)” value ([4]; Binding isotherm) was 3.3e+08 M⁻¹ and the “Association Constant, Ko (Fab)” value ([4]; Scatchard plot) was “(1.9 ± 0.2) × 10^8 M^-1”. The “Association Constant, Ko (Fab)” value ([4]; Sips plot) was 1.8e+08 M⁻¹.

In the case of `C[C@H]1O[C@@H](O[C@H]2[C@@H](O)C[C@H](O[C@H]3[C@@H](O)C[C@H](O[C@H]4CC[C@@]5(C)[C@H](CC[C@@H]6[C@@H]5CC[C@]5(C)[C@@H](C7=CC(=O)OC7)[C@@H](O)C[C@]65O)C4)O[C@@H]3C)O[C@@H]2C)C[C@H](O)[C@@H]1O` [Gitoxin], the “normalized concentration of inhibitor giving 50% inhibition of 125I-digoxin binding” value [1, 5] is reported as 8.5 and the “normalized concentration of inhibitor giving 50% inhibition of 125I-digoxin binding” value ([1]; normalizing glycoside Digoxin) is reported as 62.

For `C[C@@H]1O[C@@H](O[C@H]2C[C@@H](O)[C@]3(CO)[C@H]4[C@H](O)C[C@]5(C)[C@@H](C6=CC(=O)OC6)CC[C@]5(O)[C@@H]4CC[C@]3(O)C2)[C@H](O)[C@H](O)[C@H]1O` [Ouabain], the “normalized concentration of inhibitor giving 50% inhibition of 125I-digoxin binding” value [1, 5] was 21 and the “normalized concentration of inhibitor giving 50% inhibition of 125I-digoxin binding” value ([1]; normalizing glycoside Digoxin) was 150.
